From publication PMC2361459, “Safety, tolerability and pharmacokinetics of intravenous ghrelin for cancer-related anorexia/cachexia: a randomised, placebo-controlled, double-blind, double-crossover study” (British Journal of Cancer, 2008)

Experiments:
[1] = tested on: growth hormone (GH); experiment: Serum growth hormone (GH) response to i.v. ghrelin (IRMA); type: in vivo, human
Description: (§1) Normal saline was used as placebo.
(§2) For ghrelin assays, 5 ml blood was collected in a precooled EDTA vacutainer tube containing aprotinin (33 kIU), placed immediately on ice, and centrifuged (4°C, 3000 G, 5 min). For each millilitre of plasma, 10 μl PMSF-Isopropanol, 50 μl 1N-HCL, and 50 μl aprotinin were added, and aliquots were stored at −80°C until batch analysis. Serum was collected and cooled for GH, insulin-like growth factor 1 (IGF-1), interleukin-6 (IL-6), and leptin analysis. Testosterone radioimmunoassays (Diagnostic Products Corporation; Bühlmann, Salzburg, Austria) were performed from serum sent to routine safety labs. The radioimmunoassay kits used for total and active ghrelin were from Linco Research (St Charles, MO, USA); for GH (active GH IRMA immunoradiometric assay) from Diagnostic Systems Laboratory (Webster, TX, USA); for IGF-1 (human, bovine) from Peninsula Laboratories (San Carlos, CA, USA); for IL-6 (Quantikine human ELISA) from R&D Systems (Minneapolis, MN, USA); and for leptin (human RIA) from Millipore (Billerica, MA, USA).
(§3) All analyses were performed with SPSS (Version 11.5).

[2] = parameters: species or system human; conditions: in vivo
Description: as §1, §2, §3

[3] = tested on: insulin-like growth factor 1; experiment: Serum insulin-like growth factor 1 (IGF-1) levels; type: in vivo, human
Description: as §2, §3

[4] = tested on: interleukin-6; experiment: Plasma IL-6 levels (ELISA); type: in vivo, human; conditions: throughout the treatment period; results not shown
Description: as §2

[5] = tested on: patients with advanced incurable cancer and anorexia/cachexia; experiment: Autonomic function: standard deviation of beat-to-beat intervals (SDNN); type: in vivo, human; conditions: UD (n=9), ghrelin, P=NS
Description: Autonomic dysfunction was assessed as described previously ([Strasser et al, 2006]). Standard deviation of beat-to-beat intervals (SDNN) was analysed at baseline and at end of study for 20 min in both the LD and UD; and in the UD, in addition, 30 min before infusion until after lunch on treatment days.
as §3

[6] = tested on: patients with advanced incurable cancer and anorexia/cachexia; experiment: Radiological tumour measurements; type: in vivo, human
Description: Patients were assessed at each visit by using the NCI-CTC toxicity criteria Version 3.0, including standard blood examinations (hematology, chemistry panels), and cardiology evaluations, including echocardiography at baseline and at end of study. […] On study day 7 and at end of study, patients were asked about their perception of their tolerance and preference of day 1 (and 7) vs day 4 (and 11) treatments. […] An independent radiologist reviewed all films made before baseline, at baseline, and at end of study to judge tumour size and dynamics.

[7] = tested on: patients with advanced incurable cancer and anorexia/cachexia; conditions: in vivo
Description: In a randomised, double-blind, placebo-controlled, double-crossover trial, 4–5 days after baseline, patients received ghrelin on days 1 and 8 and placebo on days 4 and 11 or vice versa; end of study was day 17/18 (Figure 1).
On treatment days, patients ingested only water from midnight to breakfast. In the outpatient clinic, safety laboratory values and fasting hormone blood samples (including testosterone in male patients) were drawn at 0800 hours; venous access was maintained for pharmacokinetics. Patients received a standardised breakfast (120 g bread, 20 g butter, 60 g jam, 200 ml coffee with milk). At 1000 hours, a second i.v. line was inserted in the other arm for treatment given from 1030 to 1130 hours. Immediately after the end of the infusion, patients walked for approximately 5 min the 90 m to the restaurant where they received priority serving, starting the meal within 5 min.
Ghrelin of Good Manufacturing Practice quality was purchased from Clinalfa (Merck Biosciences, Switzerland) as vials of 88 μg, stored at −20°C, and dissolved in 250 ml normal saline by the hospital pharmacy immediately before application. The treatment was titrated up within the first 10 min (20% increase each 2 min) and maintained for the next 50 min. The lower-dose group (LD) received 10 pmol kg^−1 min^−1 (equals 0.0336 μg kg^−1 min^−1, approximately 2 μg kg^−1). […] After observing treatment tolerance in the LD patients, we administered the upper-dose group (UD) 40 pmol kg^−1 min^−1 (approximately 8 μg kg^−1). Normal saline was used as placebo.
Patients were assessed at each visit by using the NCI-CTC toxicity criteria Version 3.0, including standard blood examinations (hematology, chemistry panels), and cardiology evaluations, including echocardiography at baseline and at end of study. During the treatment phase, research personnel regularly contacted patients at home during the daytime to check for their safety. […] On study day 7 and at end of study, patients were asked about their perception of their tolerance and preference of day 1 (and 7) vs day 4 (and 11) treatments.

[8] = tested on: patients with advanced incurable cancer and anorexia/cachexia; conditions: human, in vivo
From the text: On study day 7 and at end of study, patients were asked about their perception of their tolerance and preference of day 1 (and 7) vs day 4 (and 11) treatments.
For exploratory analyses of patients' preference of treatment, we used the exact binominal test.

[9] = stated in discussion, no reference given; cited from earlier work
Description: Ghrelin levels were normal before infusion at 1030 hours. Renal function was not impaired. These unexpected findings of total, but not active, ghrelin remain unexplained at present but may indeed be without any physiological significance.

[10] = tested on: cancer patients; conditions: seven cancer patients; 5 pmol kg^−1 min^−1 for 180 min equals 3 μg kg^−1; no adverse effects; ref Neary et al, 2004; cited from earlier work
From the text: In melanoma-bearing nude mice, ghrelin plasma concentration increased with cachexia progression ([Hanada et al, 2004]). In cancer patients with cachexia (various cancers, n=21 ([Garcia et al, 2005]); breast and colorectal cancer, n=18 ([Wolf et al, 2006]); lung cancer, n=21 ([Shimizu et al, 2003])), ghrelin morning fasting levels were 1.3- to 1.5-fold higher than in those without cachexia and healthy controls. In contrast, ghrelin levels were normal in subgroups of patients in one study (39%) ([Wolf et al, 2006]) and all patients in another study (gastric and colorectal cancer, n=58) ([Huang e ...

In the case of CCCCCCCC(=O)OC[C@H](NC(=O)[C@H](CO)NC(=O)CN)C(=O)N[C@@H](Cc1ccccc1)C(=O)N[C@@H](CC(C)C)C(=O)N[C@@H](CO)C(=O)N1CCC[C@H]1C(=O)N[C@@H](CCC(=O)O)C(=O)N[C@@H](Cc1cnc[nH]1)C(=O)N[C@@H](CCC(N)=O)C(=O)N[C@@H](CCCNC(=N)N)C(=O)N[C@H](C(=O)N[C@@H](CCC(N)=O)C(=O)N[C@@H](CCC(N)=O)C(=O)N[C@@H](CCCNC(=N)N)C(=O)N[C@@H](CCCCN)C(=O)N[C@@H](CCC(=O)O)C(=O)N[C@@H](CO)C(=O)N[C@@H](CCCCN)C(=O)N[C@@H](CCCCN)C(=O)N1CCC[C@H]1C(=O)N1CCC[C@H]1C(=O)N[C@@H](C)C(=O)N[C@@H](CCCCN)C(=O)N[C@@H](CC(C)C)C(=O)N[C@@H](CCC(N)=O)C(=O)N1CCC[C@H]1C(=O)N[C@@H](CCCNC(=N)N)C(=O)O)C(C)C [ghrelin], the “mean difference of the peak GH levels (of week 1 and week 2) compared to baseline” value ([1]; LD, 10 pmol kg^−1 min^−1 (about 2 μg kg^−1) i.v., SD 6, P=0.004 vs UD) is reported as 28 ng/mL, the “mean difference of the peak GH levels (of week 1 and week 2) compared to baseline” value ([1]; UD, 40 pmol kg^−1 min^−1 (about 8 μg kg^−1) i.v., SD 20, P=0.004 vs LD) is reported as 50 ng/mL and the “peak increase of GH” value ([1]; upper-dose ghrelin 8 μg kg^−1 i.v. over 60 min, cancer patients) is reported as 42 ng/mL. For the same compound, the “morning fasting total ghrelin levels 3 days after the prior ghrelin infusion compared to after placebo” value [2] was “elevated”, the “mean IGF-1 at day 17/18” value ([3]; LD (n=7), ±994) was 1359 pg per 100 μl and the “mean IGF-1 at day 17/18” value ([3]; UD (n=9), ±495) was 1096 pg per 100 μl. For the same compound, the “insulin-like growth factor 1 levels” value ([3]; both dose groups, over the study) was “did not change”, the “plasma levels of IL-6” value [4] was “did not change” and the “mean SDNN” value ([5]; week 1, placebo 78±35) was 84 ± 40 ms. The “mean SDNN” value ([5]; week 2, placebo 80±27) was 75 ± 35 ms, the “patients with progressive disease (PD) during the study period” value ([6]; both dose groups, crossover ghrelin/placebo) was “two” and the tumour-growth dynamics ([6]; short intervals of tumour measurements) was “no major unexpected tumour-growth dynamics”. For the same compound, the “abdominal pain, between infusion days (drug-related adverse events, grade 1 or 2)” value [7] was 2, the “abdominal pain, during infusion on treatment days (drug-related adverse events, grade 1 or 2)” value [7] was 3 and the “abnormal liver tests or low potassium, possibly or probably related adverse events” value [7] was “three”. The “asthenia, during infusion on treatment days (drug-related adverse events, grade 1 or 2)” value [7] was 1, the “body temperature and oxygen saturation during and after the infusion” value [7] was “remained unchanged” and the “diarrhea, between infusion days (drug-related adverse events, grade 1 or 2)” value [7] was 1. The “dry mouth, during infusion on treatment days (drug-related adverse events, grade 1 or 2)” value [7] was 3, the “increased CRP, possibly or probably related adverse events” value [7] was “two” and the “nausea, between infusion days (drug-related adverse events, grade 1 or 2)” value [7] was 1. The “shortness of breath (overeaten, aspiration), during infusion on treatment days (drug-related adverse events, grade 1 or 2)” value [7] was 1, the “sweating, during infusion on treatment days (drug-related adverse events, grade 1 or 2)” value [7] was 2 and the “vomiting, between infusion days (drug-related adverse events, grade 1 or 2)” value [7] was 1. The “worsening of pre-existing neuropathy, during infusion on treatment days (drug-related adverse events, grade 1 or 2)” value [7] was 1, the “mean scores for tolerability of the study medication immediately after infusion and after lunch” value [8] was “did not differ between ghrelin and placebo” and the half-life [9] was “approximately 15 min”. For the same compound, the “energy intake with i.v. ghrelin, higher than with placebo” value [10] was 31%.
